Measurements reported in patent US9260488B2, “Replacement therapy for dental caries” (Oragenics, Inc., priority 2012, dated 2016).

Columns and labels:
Test in all cases: Minimum inhibitory concentration (CLSI M07-8A, modified)
Assay type in all cases: cell-based
[1] = system: Clostridium difficile UK1; settings: peptide purified to about 90%; THyex medium; 24 hour incubation; anaerobic chamber at 37° C.
Description: (§1) Wild-type mutacin 1140, mutacin 1140 with a F1I mutation, mutacin 1140 with a W4A mutation, and mutacin 1140 with a R13D mutation was purified to about 90% purity (measured via HPLC). The minimum inhibitory concentration (MIC) of MU1140 and variants of MU1140 was determined against several bacteria. The MIC is the lowest concentration of MU1140 that will inhibit the visible growth of a microorganism after 24 hour incubation. A lower MIC is an indication of greater inhibitory activity. Preparation of the antimicrobial agent and bacterial inoculum for minimum inhibitory concentrations (MICs) was performed by following the method described in Clinical Laboratory Standard Institute (CLSI) M07-8A with some minor modifications. Streptococcus mutans UA159 was tested overnight in a shaking incubator to maintain uniform dispersion of the bacteria. Clostridium difficile UK1 was tested in an anaerobic chamber at 37° C. The medium used was THyex.

[2] = system: Staphylococcus aureus FA1; settings: peptide purified to about 90%; THyex medium; 24 hour incubation
Description: as §1

[3] = system: Streptococcus mutans UA159; settings: peptide purified to about 90%; THyex medium; 24 hour incubation; shaking incubator overnight
Description: as §1

[4] = system: Streptococcus pneumonia FA1; settings: peptide purified to about 90%; THyex medium; 24 hour incubation
Description: as §1

[5] = system: Micrococcus luteus ATCC10240; settings: peptide purified to about 90%; THyex medium; 24 hour incubation
Description: as §1

Substance: Mu1140 Wild-type: wild-type lantibiotic mutacin MU1140 (SEQ ID NO:1) produced by S. mutans strain JH1140 (ATCC 55676)
- MIC Clostridium difficile UK1 [1]: 16
- MIC Staphylococcus aureus FA1 [2]: 16
- MIC Streptococcus mutans UA159 [3]: 2
- MIC Streptococcus pneumonia FA1 [4]: 0.5
- MIC Micrococcus luteus ATCC10240 [5]: 0.0625
